# According to patent publication US20250041624A1, “METHOD FOR ENHANCING ACTIVITY OF PHOTOSENSITIZER BY MAGNETIC FIELD” (PEKING UNIVERSITY, priority 2021, published 2025):
# Experiment: Reaction rate of fluorescent probe SOSG with 1O2 generated by photosensitizer under light and magnetic field
# Assay type: physicochemical
# Details: Ce6 and SOSG 10 μmol/L in water, 640 nm LED 5 mW·cm−2
# Protocol: (1) The photosensitizer Rose Bengal (RB) (the purity >98%, available from Saen Chemical Technologies (Shanghai) Ltd. Co., branded as Energy Chemical) and singlet oxygen fluorescent probe (SOSG) are dissolved in water (SOSG available from ThermoFisher Scientific (China) Co., Ltd.). In the resulting solution, the photosensitizer and SOSG are both at a concentration of 10 μmol/L. In a magnetic field with certain strength, the solutions are exposed to a 561 nm LED lamp (light emitting diode) at a power of 5 mW·cm^−2 and tested for fluorescence spectra at 0, 15, 30, 45, 60, 90, 120 and 180 seconds of light exposure, respectively, resulting in emission intensity ([…]) versus time (t) curves. The above fluorescence spectroscopy test is performed at a magnetic field strength of 0, 10, 35, 85, 180, 300 mT, respectively (external magnetic field provided by a neodymium iron boron permanent magnet).
# (2) The photosensitizer chlorin e6 (Ce6, Chlorin e6) (available from Saen Chemical Technologies (Shanghai) Ltd. Co., branded as Energy Chemical) and singlet oxygen fluorescent probe (SOSG) are dissolved in water, both with a concentration of 10 μmol/L in the resulting solutions. In a magnetic field with certain strength, the solutions are exposed to a 640 nm LED lamp (light emitting diode) at a power of 5 mW·cm^−2 and tested for fluorescence spectra at 0, 15, 30, 45, 60, 90, 120 and 180 seconds of light exposure, respectively, resulting in emission intensity ([…]) versus time (t) curves. The above fluorescence spectra are tested at a magnetic field strength of 0, 10, 30, 70, 150, 250 mT, respectively.
# The external magnetic field is supplied by Neodymium Iron Boron Permanent Magnet. Fluorescence spectra are tested using Edinburg FLS980 Steady State Transient Fluorescence Spectrometer with a detector of PMT R928 and a light source of 450 W ozone-free xenon lamp with excitation wavelength of λex=488 nm.
# Under irradiation conditions, photosensitizer is excited to produce singlet oxygen ^1O2, and fluorescent probe SOSG reacts with ^1O2 to give endoperoxide with green fluorescence emission characteristic, with emission wavelength of 525 nm under excitation wavelength conditions of 488 nm. The reaction has a reaction rate of r.
# In the present invention, through application of light and a magnetic field, the magnetic field effects (MFEs) is quantified by mfeR, the change rate of the reaction rate r, mfeR=(rB−r0)/r0×100%, where r0 is the reaction rate at a magnetic field strength of 0 mT and rB is the reaction rate at a magnetic field strength of B mT. Where the reaction rate (r) is proportional to the slope of the tangent of a curve (first derivative of the curve) of the emission intensity (I525 nm) versus time (t). Under magnetic field strengths of 0, 10, 35, 85, 180, 300 mT and from the time of starting to illuminate and place in magnetic field (the time recorded as 0), the first derivative of the I525 nm−t curve is 1, 1.05, 1.09, 0.99, 1.12, 1.14 (normalized).
substance,measurement,setting,value
chlorin e6 [Ce6],first derivative of I525 nm−t curve at time 0 (normalized),MF 0 mT,1
same,first derivative of I525 nm−t curve at time 0 (normalized),MF 10 mT,1.09
same,first derivative of I525 nm−t curve at time 0 (normalized),MF 30 mT,1.33
same,first derivative of I525 nm−t curve at time 0 (normalized),MF 70 mT,1.23
same,first derivative of I525 nm−t curve at time 0 (normalized),MF 150 mT,1.16
same,first derivative of I525 nm−t curve at time 0 (normalized),MF 250 mT,1.12
